# Marks after values point to notes of the source that are not given here. Bridge positions count the residues as written; N and C are the ends. Ends that are not written are not given here.
# Columns and labels:
# [1] = tested on: Bacillus cereus ATCC 2; test: Inhibitory spectrum, critical dilution with spot test; format: cell-based; details: purified mutacin, 5 μL spotted on soft agar lawn on TSAYE; reciprocal of highest dilution showing inhibition zone
# Protocol: (§1) Streptococcus mutans 59.1 and 123.1 produce mutacins F-59.1 and D-123.1 respectively. Micrococcus luteus ATCC 272 (ATCC, Manassas, VA, USA) was used as the indicator strain for the mutacin activity assays. All bacteria were routinely grown aerobically at 37°C in TSBYE made of TSB (Difco laboratories, Detroit, MI, USA) supplemented with 0.3% yeast extract (Becton Dickinson & Co., Cockeysville, MD, USA) or on TSAYE plates made of TSA (Difco) enriched with 0.3% yeast extract. Lactobacillus salivarius strain (provided by Sylvain Moineau, Université Laval, Québec, QC, Canada) was cultivated aerobically at 30°C in MRS medium (Oxoid, Nepean, ON, Canada). Other bacterial strains used for the inhibitory spectra determination are described in Mota-Meira et al. and Morency et al.. Staphylococcus carnosus was obtained from the strain collection of the Department of Microbiology, Biochemistry and Bioinformatics (Université Laval).
# (§2) Mutacin activity was determined by the spot test using Micrococcus luteus ATCC 272 as sensitive strain where two-fold dilutions were prepared in acidified (pH 2) peptone water (0.5%). Antibacterial activity spectra of purified mutacins was tested against a panel of bacterial strains using the critical dilution method combined with the spot test method as described previously. Briefly, overnight cultures of test strains in TSBYE were diluted in fresh broth before inoculating 5 mL of soft agar (0.75%) in order to obtain confluent lawns of growth on TSAYE plates. Five μL of purified mutacins, diluted in acidified (10 mM HCl) distilled water to promote solubility of the peptides, were deposited on the lawn and allowed to dry before appropriate incubation. Mutacin activity was expressed in AU/mL and corresponds to the reciprocal of the highest dilution showing a noticeable inhibition zone on the lawn.
# [2] = tested on: Bacillus subtilis ATCC 6051; test: as above; format: cell-based; details: purified mutacin, 5 μL spotted on soft agar lawn on TSAYE; reciprocal of highest dilution showing inhibition zone
# Protocol: as §1, §2
# [3] = tested on: Enterococcus faecalis ATCC 27235; test: as above; format: cell-based; details: purified mutacin, 5 μL spotted on soft agar lawn on TSAYE; reciprocal of highest dilution showing inhibition zone
# Protocol: as §1, §2
# [4] = tested on: Enterococcus faecium ATCC 19434; test: as above; format: cell-based; details: purified mutacin, 5 μL spotted on soft agar lawn on TSAYE; reciprocal of highest dilution showing inhibition zone
# Protocol: as §1, §2
# [5] = tested on: Enterococcus hirae ATCC 8043; test: as above; format: cell-based; details: purified mutacin, 5 μL spotted on soft agar lawn on TSAYE; reciprocal of highest dilution showing inhibition zone
# Protocol: as §1, §2
# [6] = tested on: Lactobacillus salivarius SMQ 876; test: as above; format: cell-based; details: purified mutacin, 5 μL spotted on soft agar lawn; reciprocal of highest dilution showing inhibition zone
# Protocol: as §1, §2
# [7] = tested on: Lactococcus lactis ATCC 11454; test: as above; format: cell-based; details: purified mutacin, 5 μL spotted on soft agar lawn on TSAYE; reciprocal of highest dilution showing inhibition zone
# Protocol: as §1, §2
# [8] = tested on: Listeria grayi ATCC 19120; test: as above; format: cell-based; details: purified mutacin, 5 μL spotted on soft agar lawn on TSAYE; reciprocal of highest dilution showing inhibition zone
# Protocol: as §1, §2
# [9] = tested on: Listeria ivanovii HPB 28; test: as above; format: cell-based; details: purified mutacin, 5 μL spotted on soft agar lawn on TSAYE; reciprocal of highest dilution showing inhibition zone
# Protocol: as §1, §2
# [10] = tested on: Listeria monocytogenes ATCC 15313; test: as above; format: cell-based; details: purified mutacin, 5 μL spotted on soft agar lawn on TSAYE; reciprocal of highest dilution showing inhibition zone
# Protocol: as §1, §2
# [11] = tested on: Listeria murrayi ATCC 25420; test: as above; format: cell-based; details: purified mutacin, 5 μL spotted on soft agar lawn on TSAYE; reciprocal of highest dilution showing inhibition zone
# Protocol: as §1, §2
# [12] = tested on: Micrococcus luteus ATCC 272; test: as above; format: cell-based; details: purified mutacin, 5 μL spotted on soft agar lawn on TSAYE; reciprocal of highest dilution showing inhibition zone
# Protocol: as §1, §2
# [13] = tested on: Pediococcus acidilactici UL5; test: as above; format: cell-based; details: purified mutacin, 5 μL spotted on soft agar lawn on TSAYE; reciprocal of highest dilution showing inhibition zone
# Protocol: as §1, §2
# [14] = tested on: Staphylococcus aureus ATCC 6538; test: as above; format: cell-based; details: purified mutacin, 5 μL spotted on soft agar lawn on TSAYE; reciprocal of highest dilution showing inhibition zone
# Protocol: as §1, §2
# [15] = tested on: Staphylococcus carnosus; test: as above; format: cell-based; details: purified mutacin, 5 μL spotted on soft agar lawn on TSAYE; reciprocal of highest dilution showing inhibition zone
# Protocol: as §1, §2
# [16] = tested on: Streptococcus pyogenes ATCC 10389; test: as above; format: cell-based; details: purified mutacin, 5 μL spotted on soft agar lawn on TSAYE; reciprocal of highest dilution showing inhibition zone
# Protocol: as §1, §2
# [17] = tested on: Streptococcus salivarius; test: as above; format: cell-based; details: purified mutacin, 5 μL spotted on soft agar lawn on TSAYE; reciprocal of highest dilution showing inhibition zone
# Protocol: as §1, §2
# [18] = tested on: Streptococcus sobrinus ATCC 27352; test: as above; format: cell-based; details: purified mutacin, 5 μL spotted on soft agar lawn on TSAYE; reciprocal of highest dilution showing inhibition zone
# Protocol: as §1, §2
# [19] = tested on: Streptococcus suis serotype 2; test: as above; format: cell-based; details: purified mutacin, 5 μL spotted on soft agar lawn on TSAYE; reciprocal of highest dilution showing inhibition zone
# Protocol: as §1, §2
# [20] = tested on: L. monocytogenes ATCC 700301 ScottA; test: as above; format: cell-based, Listeria monocytogenes; details: purified mutacin, 5 μL spotted on soft agar lawn on TSAYE; reciprocal of highest dilution showing inhibition zone
# Protocol: as §1, §2
# [21] = tested on: L. monocytogenes ATCC 700302 ScottA; test: as above; format: cell-based, Listeria monocytogenes; details: purified mutacin, 5 μL spotted on soft agar lawn on TSAYE; reciprocal of highest dilution showing inhibition zone
# Protocol: as §1, §2
# [22] = tested on: L. monocytogenes FRDC 1039; test: as above; format: cell-based, Listeria monocytogenes; details: purified mutacin, 5 μL spotted on soft agar lawn on TSAYE; reciprocal of highest dilution showing inhibition zone
# Protocol: as §1, §2
# [23] = tested on: L. monocytogenes FRDC 88571; test: as above; format: cell-based, Listeria monocytogenes; details: purified mutacin, 5 μL spotted on soft agar lawn on TSAYE; reciprocal of highest dilution showing inhibition zone
# Protocol: as §1, §2
# [24] = tested on: L. murrayi HPB 30; test: as above; format: cell-based, Listeria murrayi; details: purified mutacin, 5 μL spotted on soft agar lawn on TSAYE; reciprocal of highest dilution showing inhibition zone
# Protocol: as §1
# Mutacin activity was determined by the spot test using Micrococcus luteus ATCC 272 as sensitive strain where two-fold dilutions were prepared in acidified (pH 2) peptone water (0.5%). Antibacterial activity spectra of purified mutacins was tested against a panel of bacterial strains using the critical dilution method combined with the spot test method as described previously. […]
# [25] = tested on: S. aureus ATCC 25923; test: as above; format: cell-based, Staphylococcus aureus; details: purified mutacin, 5 μL spotted on soft agar lawn on TSAYE; reciprocal of highest dilution showing inhibition zone
# Protocol: as §1, §2
# [26] = tested on: S. aureus ATCC 43300; test: as above; format: cell-based, Staphylococcus aureus; details: purified mutacin, 5 μL spotted on soft agar lawn on TSAYE; reciprocal of highest dilution showing inhibition zone
# Protocol: as §1, §2
# [27] = tested on: S. aureus R621; test: as above; format: cell-based, Staphylococcus aureus; details: purified mutacin, 5 μL spotted on soft agar lawn on TSAYE; reciprocal of highest dilution showing inhibition zone
# Protocol: as §1, §2
# [28] = tested on: Micrococcus luteus ATCC 272; test: Mutacin activity assay (spot test) of preparations during production and purification; format: cell-based
# Protocol: as §1
# (§3) Purification of the two mutacins was achieved by two hydrophobic chromatography steps as previously described by replacing TFA with HCl (10 mM). Briefly, the active preparation was loaded on a Sep-Pak® Vac 35 cc (10 g) t-C18 Cartridge (Waters Corporation, Milford, MA, USA). Cartridges were first equilibrated with 500 mL of methanol followed by 500 mL of deionized distilled water. Antibacterial compounds were eluted with successive steps of 500 mL of water:methanol mixtures increasing the gradient of methanol by 10% from 0 to 100% in 10 mM HCl. This was carried out at a flow rate of 1 mL/min and UV detection at 214 nm. The final purification step was carried out by reverse phase chromatography (RP)-HPLC analysis (Beckman Gold Model, Coulter Canada Inc., Mississauga, ON, Canada) using an analytical C18 column (Luna 5 μ C18(2), 250 × 4.6 mm, 4 × 3.0 mm, Phenomenex, Torrance, CA, USA). Elution was carried out with solvent A (5% acetonitrile, 10 mM HCl) and solvent B (60% acetonitrile, 10 mM HCl) and recorded at 214 nm. The following program of elution was developed: 0 to 3 min, constant 100% A; 3 to 15 min, a linear gradient from 100% A to 100% B; 15 to 20 min, constant 100% B; 20 to 23 min, a linear gradient from 100% B to 100% A. A flow rate of 1 mL/min was used. The column was maintained at 39°C with a column heater. Active fractions were manually collected, subsequently dried in a Speed-Vac® concentrator (Model SC110A, Savant Instrument Inc. Farmingdale, NY, USA) and then kept at -20°C until processing. Protein concentration in active fractions was determined using the BioRad DC protein assay (BioRad, Mississauga, ON, Canada).
# as §2
# [29] = tested on: Micrococcus luteus ATCC 272; test: Inhibitory effect of mutacin F-59.1 on viable count (time-kill); format: cell-based
# Protocol: One milliliter of active preparation (1600 AU/mL) adjusted to pH 7.0 was filter sterilised then added to 10 mL of an early-log-phase culture of Micrococcus luteus ATCC 272 grown in TSBYE. Bacterial culture in TSBYE was used as a negative control. The viable count in CFU/mL was determined at intervals for up to 24 h for samples and control during incubation at 37°C by plating 100 μL of an appropriate dilution in peptone water (0.1%) on TSAYE incubated at 37°C at least 24 h.
# [30] = Hydrophobic chromatography elution (Sep-Pak t-C18, methanol steps) as measure of hydrophobicity; format: physicochemical; details: Sep-Pak t-C18 cartridge, water:methanol steps of 10% from 0 to 100% in 10 mM HCl; used as indication of hydrophobicity
# Protocol: as §3, with “The column was maintained at 39°C with a column heater. Active fractions were manually collected, subsequently dried in a Speed-Vac® concentrator (Model SC110A, Savant Instrument Inc. Farmingdale, NY, USA) and then kept at -20°C until processing.” left out
sequence,measurement,setting,value
"KYYGNGVTCGKHSCSVDWSKATTNI (disulfide 9-14 (inferred)) [mutacin F-59.1, pediocin-like (class IIa) bacteriocin of 25 amino acids produced by Streptococcus mutans 59.1; UniProt P86386]",Activity of mutacin against Bacillus cereus ATCC 2,[1],400 AU/mL
same,Activity of mutacin against Bacillus subtilis ATCC 6051,[2],400 AU/mL
same,Activity of mutacin against Enterococcus faecalis ATCC 27235,[3],200 AU/mL
same,Activity of mutacin against Enterococcus faecium ATCC 19434,[4],1600 AU/mL
same,Activity of mutacin against Enterococcus hirae ATCC 8043,[5],200 AU/mL
same,Activity of mutacin against Lactobacillus salivarius SMQ 876,[6],0 AU/mL
same,Activity of mutacin against Lactococcus lactis ATCC 11454,[7],400 AU/mL
same,Activity of mutacin against Listeria grayi ATCC 19120,[8],200 AU/mL
same,Activity of mutacin against Listeria ivanovii HPB 28,[9],200 AU/mL
same,Activity of mutacin against Listeria monocytogenes ATCC 15313,[10],200^b AU/mL
same,Activity of mutacin against Listeria murrayi ATCC 25420,[11],200^b AU/mL
same,Activity of mutacin against Micrococcus luteus ATCC 272,[12],3200 AU/mL
same,Activity of mutacin against Pediococcus acidilactici UL5,[13],800 AU/mL
same,Activity of mutacin against Staphylococcus aureus ATCC 6538,[14],0 AU/mL
same,Activity of mutacin against Staphylococcus carnosus,[15],800 AU/mL
same,Activity of mutacin against Streptococcus pyogenes ATCC 10389,[16],0 AU/mL
same,Activity of mutacin against Streptococcus salivarius ATCC 25923,[17],800 AU/mL
same,Activity of mutacin against Streptococcus sobrinus ATCC 27352,[18],800 AU/mL
same,Activity of mutacin against Streptococcus suis serotype 2,[19],0 AU/mL
same,Activity of mutacin against L. monocytogenes ATCC 700301 ScottA,[20],200^b AU/mL
same,Activity of mutacin against L. monocytogenes ATCC 700302 ScottA,[21],200^b AU/mL
same,Activity of mutacin against L. monocytogenes FRDC 1039,[22],200^b AU/mL
same,Activity of mutacin against L. monocytogenes FRDC 88571,[23],200^b AU/mL
same,Activity of mutacin against L. murrayi HPB 30,[24],200^b AU/mL
same,Activity of mutacin against S. aureus ATCC 25923,[25],0 AU/mL
same,Activity of mutacin against S. aureus ATCC 43300,[26],0 AU/mL
same,Activity of mutacin against S. aureus R621,[27],0 AU/mL
same,Activity,"[28]; step: C18 RP-HPLC (purified), spot test on M. luteus ATCC 272, two-fold dilutions",16000 AU/mL
same,"Specific activity (final, purified mutacin)","[28]; step: C18 RP-HPLC, per mg total protein (BioRad DC assay)",3.2 × 10^5 AU/mg
same,Specific activity,"[28]; step: Sep-Pak C18, per mg total protein (BioRad DC assay)",101 AU/mg
same,Activity,"[28]; step: Sep-Pak C18, spot test on M. luteus ATCC 272, two-fold dilutions",3200 AU/mL
same,Activity,"[28]; step: culture supernatant (crude preparation), spot test on M. luteus ATCC 272, two-fold dilutions in acidified (pH 2) peptone water",400 AU/mL
same,Specific activity,"[28]; step: culture supernatant, per mg total protein (BioRad DC assay)",40 AU/mg
same,Viable count of M. luteus ATCC 272 after addition of purified mutacin,"[29]; 160 AU/mL (1 mL of 1600 AU/mL, pH 7.0, added to 10 mL early-log culture in TSBYE), 37°C, followed up to 24 h, CFU/mL by plating",dropped to zero
same,Mode of action (bactericidal or not),"[29]; 160 AU/mL, M. luteus ATCC 272, 24 h incubation",bactericidal
same,Elution gradient at which active fractions were recovered (methanol in 10 mM HCl),[30],50%-60%
